According to US20250002492A1, “COMPOSITIONS OF FOLATE ABSORPTION INHIBITORS AND METHODS THEREOF” (THE TEXAS A&M UNIVERSITY SYSTEM, priority 2023, published 2025):

What was measured:
[1] = target: T1, Folate Uptake Transporter (PCFT) in Caco2 cells (Homo sapiens, UniProt Q96NT5); assay: Folate uptake transporter inhibition in Caco2 cell line ([3H]-folic acid uptake); assay type: cell-based; settings: for inhibition at 50 µM: Caco-2, pH 5.5, test conc. 50 μM, read-out: Percentage inhibition (%); for effect on folate transport / uptake: Caco-2 cells, 50 μM
T1 construct: These cells express high levels of the PCFT/SLC46A1 receptor; host or cells: Caco-2
T1 sequence (Q96NT5 1-459): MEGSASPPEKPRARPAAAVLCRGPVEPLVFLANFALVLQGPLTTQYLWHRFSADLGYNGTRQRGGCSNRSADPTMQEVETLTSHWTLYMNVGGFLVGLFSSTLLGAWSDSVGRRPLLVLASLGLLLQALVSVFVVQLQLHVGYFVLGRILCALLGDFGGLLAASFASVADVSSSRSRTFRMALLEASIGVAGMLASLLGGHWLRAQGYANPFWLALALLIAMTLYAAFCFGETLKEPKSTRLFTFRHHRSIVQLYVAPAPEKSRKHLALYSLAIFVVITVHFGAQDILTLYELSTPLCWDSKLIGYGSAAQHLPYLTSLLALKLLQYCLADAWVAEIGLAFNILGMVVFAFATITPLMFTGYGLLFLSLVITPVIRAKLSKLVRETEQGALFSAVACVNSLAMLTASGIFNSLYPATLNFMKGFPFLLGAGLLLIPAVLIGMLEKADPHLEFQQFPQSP
Procedure: Cell plates were prepared using Caco-2 cell culture medium consisting of Dulbecco's Modified Eagle's Medium (DMEM) with high glucose and L-glutamine supplemented with: 10% FBS, 1× penicillin-streptomycin mixture and 1×non-essential amino acids (NEAA) and medium was incubated at 37° C., 5% CO2 for 0.5 hour. Plates were prepared for cell seeding. Caco-2 cells from American Type Culture Collection at passage 44 were cultivated in T-75 flasks in a cell culture incubator set at 37° C., 5% CO2, 95% relative humidity. Cells reached 80-90% confluence before detaching and splitting. Cultivated cells in T-75 flasks were rinsed with 5 mL PBS and aspirated off. Then, 3 mL trypsin/EDTA was added, and cells were incubated at 37° C. for approximately 5 minutes or until the cells detached and floated. Trypsin/EDTA was inactivate by adding excess serum containing medium. Cell suspension was removed and transferred to a conical tube and cells were pelleted by centrifugation at 120×g for 5 minutes. Cells were resuspended in seeding medium at a density of 3×10^4 cells/well in 24-well plates. The plate was incubated for 8-10 days. The medium was replaced every other day, beginning no sooner than 48 hours after initial plating.
(§1) The transport buffer (HBSS with 10 mM MES, pH 5.5) was prepared by weighing 1.952 g of MES and 0.35 g sodium hydrogen carbonate and adding into 900 mL of pure water followed by sonication to dissolve the content. Following the transfer of 100 mL of 10×HBSS into the solution. The solution was placed on a stirrer, the pH was slowly adjusted with hydrochloric acid to 5.5, and then the solution was filtered to get HBSS solution (with 10 mM MES, pH 5.5).
The [3H]-folic acid (10 nM) substrate solution was prepared using [3H]-folic acid (1 mCi/ml) diluted with pH 5.5 buffer. Next, the [3H]-folic acid (10 nM) substrate solution+test inhibitor (X μM) and the [3H]-folic acid (10 nM) substrate solution+positive control inhibitor (pemetrexed, 50 μM) were prepared. For the solution without inhibitor, DMSO was diluted with corresponding substrate solution to get the working incubation solution.
The pre-incubation solution was prepared by adding the same final concentration of test compound (X μM) and the known inhibitor (pemetrexed, 50 μM) in pH 5.5 buffer. For the solution without inhibitor, DMSO diluted with in pH 5.5 buffer was used as the vehicle control.
When the 8-10 day Caco-2 cultured cells reached confluence and were differentiated, they were ready to be used for transport studies. The Caco-2 plate was removed from the incubator, and the medium was removed from the 24-well Plates. Next, cells were washed 3 times with 300 μL of pre-warmed pH 5.5 buffer. Then, 300 μL of pre-incubation solution was added into each well and the plate was placed at 37° C. for 30 minutes. The assay was performed in duplicate. After 30 minutes pre-incubation, the pre-incubation solution was aspirated, and 300 μL of pre-warmed working incubation solution was added to start the transporter assay. After 6 minutes incubation, cells were washed by quickly adding/aspirating 300 μL of ice-cold pH 5.5 buffer 4 times. The pH 5.5 buffer was removed and 300 μL of pure water was added into each well. Freeze-thaw in liquid nitrogen and 37° C. incubator was repeated for 3 times to lyse cells. After, centrifugation at 3,300 g was performed for 30 seconds. Next, 50 μL of supernatant was transferred to Isoplate-96 Microplate. 200 μL of scintillation fluid was added to the 50 μL sample and radioactivity was measured by liquid scintillation counting in a MicroBeta 2 scintillation counter for 1 min/sample.
A BCA Kit was used to determine the protein content for each well. Bovine serum albumin at 2, 1, 0.5, 0.25, 0.125, 0.0625, 0.0313, 0.0156, 0.00781 and 0.00391 mg/mL was prepared in Phosphate Buffer Saline (PBS, pH 7.4). 10 μL of supernatant was mixed from the previous step with the same volume of PBS. […]

[2] = target: T1, Folate Uptake Transporter (PCFT) in Caco2 cells; assay: Folate uptake transporter substrate assessment in Caco2 cell line (compound uptake with and without pemetrexed); assay type: in vitro ADME; settings: for cell permeability: Caco-2; for Uptake Ratio(−Inhibitor/+Inhibitor): human, Caco-2, 6 min, 1 μM, pH 5.5
Procedure: Cell Plates were Prepared According to the Methods of Example 8 Using Caco-2 Cells from American Type Culture Collection at Passage 37.
as §1
The test compounds and folic acid (1 μM) substrate solutions were prepared by diluting with pH 5.5 buffer. Next, the test compounds and folic acid (1 μM) substrate solution+positive control inhibitor (pemetrexed, 50 μM) were prepared. For the solution without inhibitor, DMSO was diluted with corresponding substrate solution to get the working incubation solution.
For the solution with inhibitor, the pre-incubation solution was prepared by adding the positive control inhibitor (pemetrexed, 50 μM) in pH 5.5 buffer. For the solution without inhibitor, DMSO was diluted with pH 5.5 buffer and used as the vehicle control.
When the 8-10 day Caco-2 cultured cells reached confluence and were differentiated, they were ready to be used for transport studies. The Caco-2 plate was removed from the incubator, and the medium was removed from the 24-well Plates. Next, cells were washed 3 times with 300 μL of pre-warmed pH 5.5 buffer. Then, 300 μL of pre-incubation solution was added into each well and the plate was placed at 37° C. for 30 minutes. The assay was performed in duplicate. After 30 minutes pre-incubation, the pre-incubation solution was aspirated, and 300 μL of pre-warmed working incubation solution was added to start the transporter assay. After 6 minutes incubation, cells were washed by quickly adding/aspirating 300 μL of ice-cold pH 5.5 buffer 4 times. The pH 5.5 buffer was removed and 300 μL of pure water was added into each well. Freeze-thaw in liquid nitrogen and 37° C. incubator was repeated for 3 times to lyse cells. After, centrifugation at 3,300 g was performed for 30 seconds. Next, 50 μL of supernatant was transferred to 200 μL methanol or acetonitrile containing internal standard and centrifuged at 3,300 g for 30 minutes. 200 μL aliquots of the supernatants were used for LC-MS/MS analysis. Standards were treated the same as samples.
A BCA Kit was used to determine the protein content for each well. Bovine serum albumin at 2, 1, 0.5, 0.25, 0.125, 0.0625, 0.0313, 0.0156, 0.00781 and 0.00391 mg/mL was prepared in Phosphate Buffer Saline (PBS, pH 7.4). 10 μL of supernatant was mixed from the previous step with the same volume of PBS. 20 μL of standard or test sample was added into 96-well clear plate and mixed with 200 μL working reagent. After 30 minutes incubation at 37° C., the absorbance at 562 nm was measured on the microplate reader.
Standard-curves: prepared 200 μM DMSO Folic acid solution, samples of 1000 nm, 300 nm, 100 nm, 30 nM, and 10 nM prepared using a PH 5.5 buffer, and a PH 5.5 buffer containing 50 μM of pemetrexed, respectively.
All calculations were carried out using Microsoft Excel. Peak areas were determined from extracted ion chromatograms. Uptake rate, in unit of pmol/mg protein/min, is calculated using the following equation: Uptake rate=Conc./(Protein×Time); Conc. is concentration of drug in cell lysate (nM), Protein is the protein concentration of cell lysate (mg/mL), and Time is the incubation time (minute). Uptake ratio is calculated using the following equation: Uptake ratio=Uptake rate without inhibitor/Uptake rate with inhibitor. Note: The compound was considered as a potential substrate of a particular transporter when the uptake ratio was greater than 2.

[3] = target: T1, Folate Uptake Transporter (PCFT) in Caco2 cells; assay: as above; assay type: in vitro ADME; settings: positive control, test conc. 0.01 μM, radiolabelled
[4] = [3H]-folic acid 10 nM, 30 min pre-incubation, 6 min incubation

inhibition at 50 µM [1, 4] [%] | effect on folate transport / uptake ([1]; pH 5.5) | cell permeability [2] | Uptake Ratio(−Inhibitor/+Inhibitor) [2] | Percentage inhibition (%) ([1]; test conc. 50 μM, [3H]-folic acid 10 nM, pH 5.5, 30 min pre-incubation, 6 min incubation) | Uptake Rate (pmol/mg protein/min) ([3]; DMSO (no inhibitor)) | Uptake Ratio(−Inhibitor/+Inhibitor) ([3]; pemetrexed 50 μM) | Uptake Rate (pmol/mg protein/min) ([3]; with pemetrexed 50 μM) | Molecule
62.4 | – | – | – | – | – | – | – | Nc1nc2[nH]cc(CCc3ccc(C(=O)N[C@@H](CCC(=O)O)C(=O)O)cc3)c2c(=O)[nH]1 [Pemetrexed, reference compound]
-18.7 | promoted folate transport | highly permeable | 0.86 | – | – | – | – | Cc1cccc(-c2noc(C3Cc4nc[nH]c4CN3C(=O)Nc3cccc(F)c3)n2)c1 (stereo not shown) [MPOL_D_2, N-(3-fluorophenyl)-6-(3-(m-tolyl)-1,2,4-oxadiazol-5-yl)-3,4,6,7-tetrahydro-5H-imidazo[4,5-c]pyridine-5-carboxamide]
25.5 | inhibit folate uptake | highly permeable | 1.02 | 25.25 | – | – | – | Cc1ccc(NC(=O)N2Cc3[nH]cnc3CC2c2nc(-c3ccc4c(c3)OCO4)no2)cc1 (stereo not shown) [MPOL_D_1, 6-(3-(benzo[d][1,3]dioxol-5-yl)-1,2,4-oxadiazol-5-yl)-N-(p-tolyl)-3,4,6,7-tetrahydro-5H-imidazo[4,5-c]pyridine-5-carboxamide]
– | – | – | – | – | 0.02 | 2.66 | 0.01 | Folic acid [3,5,7,9-3H] sodium salt
